ChEMBL document CHEMBL1132959, “Design of potent dicyclic (1-5/4-10) gonadotropin releasing hormone (GnRH) antagonists” (J Med Chem, 2000)
Bridge positions count the residues as written; N and C are the ends. Square brackets hold non-standard residues; d marks the D form. Peptide text beside a SMILES is read from it. dPhe(4-Cl) = N[C@H](Cc1ccc(Cl)cc1)C(=O)O; dPhe(4-F) = N[C@H](Cc1ccc(F)cc1)C(=O)O; d2Nal = N[C@H](Cc1ccc2ccccc2c1)C(=O)O; NMeL = CN[C@@H](CC(C)C)C(=O)O; ΔPro = O=C(O)[C@@H]1C=CCN1; Dap = NC[C@H](N)C(=O)O; βAla = NCCC(=O)O

Columns and labels:
[1] = biological target: T1, Gonadotropin-releasing hormone receptor (Rattus norvegicus, UniProt P30969); test: Affinity for rat gonadotrophin releasing hormone (GnRH) receptor using HEK293 cells transfected with rat Gonadotropin-releasing hormone receptor; type: cell-based
T1 sequence (P30969 whole entry): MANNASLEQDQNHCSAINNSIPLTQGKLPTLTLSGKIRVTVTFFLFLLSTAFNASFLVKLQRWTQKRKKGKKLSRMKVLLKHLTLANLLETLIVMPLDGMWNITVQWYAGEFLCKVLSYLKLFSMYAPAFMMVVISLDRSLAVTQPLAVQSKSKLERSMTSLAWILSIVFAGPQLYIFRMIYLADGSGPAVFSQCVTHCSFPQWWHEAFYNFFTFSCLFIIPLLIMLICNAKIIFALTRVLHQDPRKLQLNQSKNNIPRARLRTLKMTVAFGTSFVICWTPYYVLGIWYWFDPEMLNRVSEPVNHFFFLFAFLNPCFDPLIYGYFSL

Rattus norvegicus [2] = species: Rattus norvegicus; test: Antiovulatory potency at 1 ug/rat expressed as rats ovulating by total no. of rats (5/7); type: functional
Rattus norvegicus [3] = species: Rattus norvegicus; test: Antiovulatory potency at 2.5 ug/rat expressed as rats ovulating by total no. of rats (2/8); type: functional
Rattus norvegicus [4] = species: Rattus norvegicus; test: Antiovulatory potency at 1000 ug/rat expressed as rats ovulating by total no. of rats (4/4); type: functional

| SMILES | Ki ([1]; hek293) [nM] | Ki [1] [nM] | also measured |
| --- | --- | --- | --- |
| CC(=O)N[C@H](Cc1ccc2ccccc2c1)C(=O)N[C@H](Cc1ccc(F)cc1)C(=O)N[C@H](Cc1c[nH]c2ccccc12)C(=O)N[C@H]1CC(=O)NC[C@@H](C(N)=O)NC(=O)[C@@H]2CCCN2C(=O)[C@@H]2CCCCNC(=O)CC[C@H](NC1=O)C(=O)N[C@H](CCCN=C(N)N)C(=O)N[C@@H](CC(C)C)C(=O)N2 | 0.32 |  |  |
| CC(C)C[C@H]1C(=O)N[C@@H](CCCN=C(N)N)C(=O)N2CCC[C@H]2C(=O)NCCC(=O)N2CC=C[C@H]2C(=O)N[C@H](Cc2ccc(Cl)cc2)C(=O)N[C@H](Cc2c[nH]c3ccccc23)C(=O)N[C@@H](CO)C(=O)N[C@@H](Cc2ccc(O)cc2)C(=O)N[C@H](Cc2c[nH]c3ccccc23)C(=O)N1C (cyclo([NMeL]RP[βAla][ΔPro][dPhe(4-Cl)][dW]SY[dW])) |  | 14 |  |
| CC(=O)N[C@H](Cc1ccc2ccccc2c1)C(=O)N[C@H](Cc1ccc(Cl)cc1)C(=O)N[C@@H]1CC(=O)NCCCC[C@@H]2NC(=O)[C@H](CC(C)C)NC(=O)[C@@H](CCCNC(=N)N)NC(=O)[C@H](Cc3ccc(O)cc3)NC(=O)[C@H](CC(=O)NC[C@@H](C(N)=O)NC(=O)[C@@H]3CCCN3C2=O)NC1=O | 17 |  |  |
| CC(=O)N[C@H](Cc1ccc2ccccc2c1)C(=O)N[C@H](Cc1ccc(Cl)cc1)C(=O)N[C@@H]1CCC(=O)NCCCC[C@@H](C(=O)N2CCC[C@H]2C(=O)N[C@H](C)C(N)=O)NC(=O)[C@H](CC(C)C)NC(=O)[C@@H](Cc2ccc3ccccc3c2)NC(=O)[C@H](CCCNC(=N)N)NC(=O)[C@H](CO)NC1=O | 23 |  |  |
| CC(=O)N[C@@H]1CC(=O)NCC(=O)NCC[C@H]2NC(=O)[C@@H](CC(=O)NC[C@H](C(N)=O)NC(=O)[C@H]3CCCN3C(=O)[C@H](CCCN=C(N)N)NC(=O)[C@@H](CC(C)C)NC(=O)[C@@H](Cc3ccc4ccccc4c3)NC2=O)NC(=O)[C@@H](Cc2ccc3ccccc3c2)NC(=O)[C@H](Cc2ccc(Cl)cc2)NC1=O | 0.38 |  | Ovulating rats (Rattus norvegicus [2]): 5; Ovulating rats (Rattus norvegicus [3]): 2 |
| CC(=O)N[C@H]1CC(=O)NCC(=O)NCC[C@H]2NC(=O)[C@H](CC(=O)NC[C@@H](C(N)=O)NC(=O)[C@@H]3CCCN3C(=O)[C@H](CCCN=C(N)N)NC(=O)[C@H](CC(C)C)NC(=O)[C@@H](Cc3ccc4ccccc4c3)NC2=O)NC(=O)[C@@H](Cc2c[nH]c3ccccc23)NC(=O)[C@@H](Cc2ccc(Cl)cc2)NC1=O | 3.1 |  |  |
| CC(=O)N[C@H](Cc1ccc2ccccc2c1)C(=O)N[C@H](Cc1ccc(Cl)cc1)C(=O)N[C@@H]1CC(=O)NCCC[C@@H](C(=O)N2CCC[C@H]2C(=O)N[C@H](C)C(N)=O)NC(=O)[C@H](CC(C)C)NC(=O)[C@@H](Cc2ccc3ccccc3c2)NC(=O)[C@H](CCCNC(=N)N)NC(=O)[C@H](C)NC1=O |  | 14 |  |
| CC(=O)N[C@H](Cc1ccc2ccccc2c1)C(=O)N[C@@H]1CCC(=O)NCCCC[C@@H]2NC(=O)[C@H](CC(C)C)NC(=O)[C@@H](Cc3ccc4ccccc4c3)NC(=O)[C@H](CCCN=C(N)N)NC(=O)[C@H](CC(=O)NC[C@@H](C(N)=O)NC(=O)[C@@H]3CCCN3C2=O)NC(=O)[C@@H](Cc2cccnc2)NC1=O [listing 1 of 2 here] | 15 |  |  |
| CC(=O)N[C@H](Cc1ccc2ccccc2c1)C(=O)N[C@@H]1CCC(=O)NCCCC[C@@H](C(=O)N2CCC[C@H]2C(=O)N[C@H](C)C(N)=O)NC(=O)[C@H](CC(C)C)NC(=O)[C@@H](Cc2ccc3ccccc3c2)NC(=O)[C@H](CCCN=C(N)N)NC(=O)[C@H](C)NC(=O)[C@@H](Cc2cccnc2)NC1=O | 110 |  |  |
| CC(=O)N[C@H](Cc1ccc2ccccc2c1)C(=O)N[C@@H]1CC(=O)NC[C@@H](C(=O)N2CCC[C@H]2C(=O)N[C@H](C)C(N)=O)NC(=O)[C@H](CC(C)C)NC(=O)[C@@H](Cc2ccc3ccccc3c2)NC(=O)[C@H](CCCNC(=N)N)NC(=O)[C@H](C)NC(=O)[C@@H](Cc2cccnc2)NC1=O [listing 1 of 2 here] | 67 |  |  |
| CC(=O)N[C@H]1CCC(=O)NCC(=O)NCC[C@@H]2NC(=O)[C@H](CC(=O)NC[C@@H](C(N)=O)NC(=O)[C@@H]3CCCN3C(=O)[C@H](CCCNC(=N)N)NC(=O)[C@H](CC(C)C)NC(=O)[C@@H](Cc3ccc4ccccc4c3)NC2=O)NC(=O)[C@@H](Cc2c[nH]c3ccccc23)NC(=O)[C@@H](Cc2ccc(Cl)cc2)NC1=O |  | 0.24 |  |
| CC(=O)N[C@H](Cc1ccc2ccccc2c1)C(=O)N[C@H](Cc1ccc(Cl)cc1)C(=O)N[C@@H]1CC(=O)NCC[C@@H](C(=O)N2CCC[C@H]2C(=O)N[C@H](C)C(N)=O)NC(=O)[C@H](CC(C)C)NC(=O)[C@@H](Cc2ccc3ccccc3c2)NC(=O)[C@H](CCCNC(=N)N)NC(=O)[C@H](C)NC1=O |  | 13 |  |
| CC(=O)N1CC=C[C@H]1C(=O)N[C@H](Cc1ccc(F)cc1)C(=O)N[C@H](Cc1c[nH]c2ccccc12)C(=O)N[C@H]1CC(=O)NC[C@@H](C(N)=O)NC(=O)[C@@H]2CCCN2C(=O)[C@H](CCCN=C(N)N)NC(=O)[C@H](CC(C)C)NC(=O)[C@@H](Cc2ccc3ccccc3c2)NC(=O)[C@H](Cc2ccc(O)cc2)NC1=O (Ac-[ΔPro][dPhe(4-F)][dW]DY[d2Nal]LRP[Dap]-NH2; lactam 4-10) |  | 0.27 |  |
| CC(=O)N[C@H]1CC(=O)NCC(=O)NCC[C@@H]2NC(=O)[C@H](CC(=O)NC[C@@H](C(N)=O)NC(=O)[C@@H]3CCCN3C(=O)[C@H](CCCN=C(N)N)NC(=O)[C@H](CC(C)C)NC(=O)[C@@H](Cc3ccc4ccccc4c3)NC2=O)NC(=O)[C@@H](Cc2c[nH]c3ccccc23)NC(=O)[C@@H](Cc2ccc(Cl)cc2)NC1=O |  | 0.22 |  |
| CC(=O)N[C@H](Cc1ccc2ccccc2c1)C(=O)N[C@H](Cc1ccc(Cl)cc1)C(=O)N[C@@H]1CSSC[C@@H](C(=O)N2CCC[C@H]2C(=O)N[C@H](C)C(N)=O)NC(=O)[C@H](CC(C)C)NC(=O)[C@@H](Cc2ccc3ccccc3c2)NC(=O)[C@H](CCCN=C(N)N)NC(=O)[C@H](C)NC1=O |  | 9.9 |  |
| CC(=O)N[C@H](Cc1ccc2ccccc2c1)C(=O)N[C@@H]1CC(=O)NC[C@@H](C(=O)N2CCC[C@H]2C(=O)N[C@H](C)C(N)=O)NC(=O)[C@H](CC(C)C)NC(=O)[C@@H](Cc2ccc3ccccc3c2)NC(=O)[C@H](CCCNC(=N)N)NC(=O)[C@H](C)NC(=O)[C@@H](Cc2cccnc2)NC1=O [listing 2 of 2 here] |  |  | Ovulating rats (Rattus norvegicus [4]): 4 |
| CC(=O)N[C@H](Cc1ccc2ccccc2c1)C(=O)N[C@H](Cc1ccc(Cl)cc1)C(=O)N[C@@H]1CC(=O)NCCCC[C@@H](C(=O)N2CCC[C@H]2C(=O)N[C@H](C)C(N)=O)NC(=O)[C@H](CC(C)C)NC(=O)[C@@H](Cc2ccc3ccccc3c2)NC(=O)[C@H](CCCN=C(N)N)NC(=O)[C@H](C)NC1=O |  | 2.3 |  |
| CC(=O)N[C@H](Cc1ccc2ccccc2c1)C(=O)N[C@H]1CC(=O)NCC(=O)NC[C@@H]2NC(=O)[C@H](Cc3ccc(O)cc3)NC(=O)[C@H](CC(=O)NC[C@@H](C(N)=O)NC(=O)[C@@H]3CCCN3C(=O)[C@H](CCCN=C(N)N)NC(=O)[C@H](CC(C)C)NC2=O)NC(=O)[C@@H](Cc2c[nH]c3ccccc23)NC1=O | 490 |  | Ovulating rats (Rattus norvegicus [4]): 4 |
| CC(=O)N[C@H](Cc1ccc2ccccc2c1)C(=O)N[C@H](Cc1ccc(Cl)cc1)C(=O)N[C@@H]1CC(=O)NCCCC[C@@H]2NC(=O)[C@H](CC(C)C)NC(=O)[C@@H](Cc3ccc4ccccc4c3)NC(=O)[C@H](CCCNC(=N)N)NC(=O)[C@H](CC(=O)NC[C@@H](C(N)=O)NC(=O)[C@@H]3CCCN3C2=O)NC1=O | 11 |  |  |
| CC(=O)N[C@H](Cc1ccc2ccccc2c1)C(=O)N[C@@H]1CCC(=O)NCCCC[C@@H]2NC(=O)[C@H](CC(C)C)NC(=O)[C@@H](Cc3ccc4ccccc4c3)NC(=O)[C@H](CCCN=C(N)N)NC(=O)[C@H](CC(=O)NC[C@@H](C(N)=O)NC(=O)[C@@H]3CCCN3C2=O)NC(=O)[C@@H](Cc2cccnc2)NC1=O [listing 2 of 2 here] |  |  | Ovulating rats (Rattus norvegicus [4]): 4 |
| CC(=O)N[C@H](Cc1ccc2ccccc2c1)C(=O)N[C@H](Cc1ccc(Cl)cc1)C(=O)N[C@@H]1CC(=O)NC[C@@H](C(=O)N2CCC[C@H]2C(=O)N[C@H](C)C(N)=O)NC(=O)[C@H](CC(C)C)NC(=O)[C@@H](Cc2ccc3ccccc3c2)NC(=O)[C@H](CCCN=C(N)N)NC(=O)[C@H](C)NC1=O [listing 1 of 2 here] |  |  | Ovulating rats (Rattus norvegicus [4]): 4 |
| CC(=O)N[C@H](Cc1ccc2ccccc2c1)C(=O)N[C@H](Cc1ccc(Cl)cc1)C(=O)N[C@@H]1CC(=O)NC[C@@H](C(=O)N2CCC[C@H]2C(=O)N[C@H](C)C(N)=O)NC(=O)[C@H](CC(C)C)NC(=O)[C@@H](Cc2ccc3ccccc3c2)NC(=O)[C@H](CCCN=C(N)N)NC(=O)[C@H](C)NC1=O [listing 2 of 2 here] |  | 21 |  |
| CC(=O)N[C@H]1CCC(=O)NCCCC[C@@H](C(=O)N2CCC[C@H]2C(=O)N[C@@H](C)C(N)=O)NC(=O)[C@H](CC(C)C)NC(=O)[C@H](Cc2ccc3ccccc3c2)NC(=O)[C@H](CCCNC(=N)N)NC(=O)[C@H](C)NC(=O)[C@H](Cc2cccnc2)NC(=O)[C@H](Cc2ccc(Cl)cc2)NC1=O | 62 |  | Ovulating rats (Rattus norvegicus [4]): 4 |
| CC(=O)N[C@@H]1CCC(=O)NCCCC[C@@H](C(=O)N2CCC[C@H]2C(=O)N[C@@H](C)C(N)=O)NC(=O)[C@H](CC(C)C)NC(=O)[C@H](Cc2ccc3ccccc3c2)NC(=O)[C@H](CCCNC(=N)N)NC(=O)[C@H](C)NC(=O)[C@H](Cc2cccnc2)NC(=O)[C@H](Cc2ccc(Cl)cc2)NC1=O | 55 |  | Ovulating rats (Rattus norvegicus [4]): 4 |
| CC(=O)N[C@H](Cc1ccc2ccccc2c1)C(=O)N[C@H](Cc1ccc(F)cc1)C(=O)N[C@H](Cc1cccnc1)C(=O)N[C@H]1CC(=O)NC[C@@H](C(N)=O)NC(=O)[C@@H]2CCCN2C(=O)[C@@H]2CCNC(=O)CNC(=O)CC[C@H](NC1=O)C(=O)N[C@H](CCCN=C(N)N)C(=O)N[C@@H](CC(C)C)C(=O)N2 | 0.12 |  |  |
| CC(C)C[C@@H]1NC(=O)[C@@H](Cc2ccc3ccccc3c2)NC(=O)[C@H](CCCNC(=N)N)NC(=O)[C@H](C)NC(=O)[C@@H](Cc2cccnc2)NC(=O)[C@@H](Cc2ccc(Cl)cc2)NC(=O)[C@@H](Cc2ccc3ccccc3c2)NC(=O)CCC(=O)NCCCC[C@@H](C(=O)N2CCC[C@H]2C(=O)N[C@H](C)C(N)=O)NC1=O | 21 |  |  |
